Laboratory results: patent US11504380B2, “Method of treatment of cirrhosis” (INVENTIVA, priority 2019, dated 2022)

Key:
Assay type in all cases: in vivo, Sprague Dawley rats
[1] = system: rat model of cirrhosis induced by the administration of thioacetamide (TAA); experiment: AST protein content in plasma of TAA-induced cirrhotic rats; conditions: TAA-exposed rats, 100 mg/kg, vs vehicle, p<0.005 (FIG. 8)
Excerpt: (§1) Lanifibranor has been assessed in a rat model of cirrhosis induced by the administration of thioacetamide (TAA), which administration leads to the development of fibrosis in the early time points and then of cirrhosis in the late time points, turning for the majority of the animals to decompensated cirrhosis. Sprague Dawley rats (12-15 rats per groups) were intraperitoneally administered TAA (twice a week) for a period of twelve weeks to ensure reaching decompensated cirrhosis. At the end of this period, a TAA detoxification period of four days was observed. The rats were then orally administered for two weeks with either lanifibranor at 100 mg/kg/day in vehicle (methylcellulose 1%+poloxamer-188 0.1%), or with vehicle alone (control). At the end of the two weeks of treatment in vivo systemic and hepatic hemodynamics were determined and rats were then sacrificed, and plasma samples and liver tissue were harvested.

[2] = system: rat model of cirrhosis induced by the administration of thioacetamide (TAA); experiment: Liver tissue protein levels by Western blot in TAA-induced cirrhotic rats; conditions: TAA-exposed rats, 100 mg/kg, vs vehicle
Excerpt: as §1, with “harvested. Triton lysis buffer was used for protein extraction of liver tissue samples. Proteins were separated by molecular weight by electrophoresis using a sodium dodecylsulphate polyacrylamide gel, and transferred to a nitrocellulose membrane (Western blot).” for “harvested.”

[3] = system: rat model of cirrhosis induced by the administration of thioacetamide (TAA); experiment: Systemic and hepatic hemodynamics, ascites and body/organ weights in TAA-induced cirrhotic rats; conditions: for IHVR (intrahepatic resistance) / PBF (portal blood flow) / PP (portal pressure): 100 mg/kg/day
Excerpt: as §1, with “harvested. The hemodynamics measurements were obtained as follow: mean arterial pressure (MAP) and heart rate (HR) were measured by cannulating the femoral artery; portal pressure (PP) was measured by cannulating the ileocolic vein, both with a heparinized p50 catheter (Portex) connected to a pressure probe; portal blood flow (PBF) was determined with the help of specific non-constrictive perivascular ultrasonic transit-time flow probe (Transonic Systems Inc.).” for “harvested.”

[4] = system: rat model of cirrhosis induced by the administration of thioacetamide (TAA); experiment: Liver histology (Sirius Red collagen staining) and electron microscopy of sinusoidal fenestrae in TAA-induced cirrhotic rats; conditions: TAA-exposed rats, 100 mg/kg
Excerpt: as §1, with “harvested. Liver tissue samples for histology were fixed in 4% formaldehyde (Sigma), embedded in paraffin, sectioned and stained with 0.1% Sirius Red in picric acid aqueous solution (Sigma). Sinusoidal fenestrae were analyzed by electronic microscopy.” for “harvested.”

[5] = system: rat model of cirrhosis induced by the administration of thioacetamide (TAA); experiment: Liver tissue mRNA expression by qPCR in TAA-induced cirrhotic rats; conditions: TAA-exposed rats, 100 mg/kg
Excerpt: as §1, with “harvested. RNA was extracted from liver tissue using Trizol (Life Technologies), and quantified with the help of a NanoDrop spectrophotometer. Reverse transcription was carried out following QuantiTect reverse transcription kit (Qiagen). qPCR was performed using PowerUp SYBR Green Master Mix (Thermo Fisher) and specific primers.” for “harvested.”

[6] = TAA-exposed rats, 100 mg/kg/day orally for two weeks
[7] = TAA-exposed rats, 100 mg/kg/day orally for two weeks, listed as lanifibranor

## O=C(O)CCCc1cc2cc(Cl)ccc2n1S(=O)(=O)c1ccc2ncsc2c1 [Lanifibranor, 4-[1-(1,3-benzothiazol-6-ylsulfonyl)-5-chloroindol-2-yl]butanoic acid]
[1]
  AST protein content in plasma: significantly decreased
[2]; p<0.01 (FIG. 5)
  protein level of Von Willebrand factor: significantly reduced
[2]; p<0.05 (FIG. 3a)
  α-SMA expression at protein level: significantly reduced
[2]; p<0.05 (FIG. 3b)
  protein level of Desmin: significantly reduced
[3]; [6]
  Ascites: 16%
  MAP (mean arterial pressure): 84 ± 2 mmHg
  IHVR (intrahepatic resistance): 0.53 ± 0.06 mmHg · min/mL
  PBF (portal blood flow): 23.5 ± 2.1 mL/min
  PP (portal pressure): 11.2 ± 0.5 mmHg
[3]; [7]
  IHVR (intrahepatic resistance): 0.75±0.1 mmHg · min/mL
  PBF (portal blood flow): no significant changes
  PP (portal pressure): 11.2±0.5 mmHg
[3]; cirrhotic rats administered with lanifibranor vs vehicle
  systemic hemodynamics: No effects
[4]
  collagen deposition (PicroSirius Red, PSR, staining): 12.3%
[4]; vs vehicle, p<0.05 (FIG. 4), electronic microscopy
  sinusoidal capillarization (sinusoidal fenestrae): significantly reduced
[4]; PicroSirius Red staining
  histological decrease in collagen deposition compared to vehicle: 32%
[5]; vs vehicle (FIG. 6)
  VCAM-1 mRNA expression: a trend
[5]; vs vehicle, P<0.05 (FIG. 6)
  E-Selectin mRNA: significant decrease
  ICAM-1 mRNA: significant decrease
[5]; vs vehicle, p<0.001 (FIG. 2)
  TIMP1 mRNA expression: significantly reduced
[5]; vs vehicle, p<0.005 (FIG. 1)
  collagen 1a1 mRNA expression: significant decrease
[5]; vs vehicle, p<0.005 (FIG. 3a)
  α-SMA expression at mRNA level: significantly reduced
[5]; vs vehicle, p<0.05 (FIG. 2)
  TIMP2 mRNA expression: significantly reduced
[5]; vs vehicle, p<0.05 (FIG. 7)
  IL-6 mRNA expression: significantly decreased
